Here are results for one compound from patent US20210030698A1, “GEL CONTAINING ZERUMBONE FROM BITTER GINGER (ZINGIBER ZERUMBET) FOR CURATIVE TREATMENT OF DIABETIC ULCERS” (INSTITUTO NACIONAL DE PESQUISAS DA AMAZÔNIA ? INPA, priority 2018, published 2021).

The subject of one assay is Artemia salina. The assay can be described thus: in vitro cytotoxicity test on Artemia salina. How it is done: In the in vitro cytotoxicity tests, zerumbone produced mortality for Artemia salina of CL50—45 ug/ml, showing a positive correlation between antitumor and anti-inflammatory activities.
The test system of a further assay is rat paw edema. The assay can be described thus: anti-inflammatory activity, carrageenan rat paw edema. The assay is classed as in vivo. The settings on record: croton oil and arachidonic acid models. For orientation: The carrageenan paw model is a standard test of acute inflammation.
Assay [1] in a line: barbiturate sleep (sodium pentobarbital). Type of assay: in vivo. The settings on record: sodium pentobarbital (nembutal).
For assay [2], the system named is mice. The assay can be described thus: analgesic activity in chemical and thermal models of pain (acetic acid, formalin, capsaicin). Type of assay: in vivo.
Assay [3] concerns mice. The assay can be described thus: hot plate test pain model. The assay is classed as in vivo. The settings on record: hot plate 49-54° C. Background: Hot-plate and tail-flick tests time the reaction to a heat stimulus.

With `C/C1=C\CC(C)(C)/C=C/C(=O)/C(C)=C/CC1` [zerumbone], the “CL50 mortality for Artemia salina” value in the assay on Artemia salina was 45 µg/mL. For the same compound, the “anti-inflammatory effect, inhibition of carrageenan inflammatory response in rat paw edema” value in the assay on rat paw edema was “significant and dose-dependent anti-inflammatory effects”. In assay [1], the “barbiturate sleep recovery time (T.R)” value was “approximately 600 minutes”. In the assay with mice [2] (administered orally and intraperitoneally), the “analgesic activity against pain models acetic acid, formalin and capsaicin” value was “significant, dose-dependent analgesic activity”. Besides, the “analgesic effect in chemical and thermal models of pain” value with mice [2] (doses of 250 to 1000 mg/kg, mice) is on record as “potent analgesic effect”. In the assay with mice [3], the “latency of the animals in the hot plate test” value is “significantly increased”.
